From patent publication US11000033B2, “Ketone or oxime compound, and herbicide” (NISSAN CHEMICAL CORPORATION, priority 2014, dated 2021)

Tests used:
Assay type in all cases: in vivo
[1] = test system: Apera spica-venti; assay: Test Example 4: herbicidal effect by soil treatment (symbol L); conditions: application herbicide amount 320 g/ha
Outline: (§1)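 Seeds were sown in sterilized diluvial soil, covered with about 1.5 cm of soil, and the soil surface was sprayed with a water-diluted emulsion of the compound at a predetermined rate. Plants grew in a greenhouse at 25° C. to 30° C.; effects were scored visually 3 weeks after application.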

[2] = test system: rice plant; assay: Test Example 5: effect on crop by foliage application, plastic box (symbol b); conditions: 320 g/ha, 3 weeks after application
Outline: (§2)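 Crop seed is sown alongside grass and broadleaf weed species in spots in sterilized diluvial soil, then covered to a depth of about 1.5 cm. Plants grow in a greenhouse kept at 25° C. to 30° C.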

[3] = test system: Abutilon theophrasti; assay: Test Example 5: herbicidal effect by foliage application, plastic box (symbol M); conditions: 320 g/ha, 3 weeks after application
Outline: (§3)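 Effect is rated 3 weeks after a foliar spray of water-diluted emulsion concentrate at a predetermined herbicide amount. Plants had grown 14 days in a 25° C. to 30° C. greenhouse from seed in sterilized diluvial soil.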

[4] = test system: Avena fatua; assay: Test Example 5: herbicidal effect by foliage application, plastic box (symbol I); conditions: 320 g/ha, 3 weeks after application
Outline: as §3

[5] = test system: Echinochloa crus-galli var. crus-galli; assay: Test Example 3: herbicidal effect by foliage application, Wagner pot (symbol H); conditions: application herbicide amount 320 g/ha
Outline: (§4)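 Alluvial soil was flooded to a depth of 0.1–0.5 cm, seeded with the weeds and rice, and kept in a greenhouse at 25–30 °C. After 14 days of growth, the foliage received a small-sprayer application of emulsion diluted to the intended rate; injury was rated at 3 weeks.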

[6] = test system: Amaranthus retroflexus; assay: Test Example 4: herbicidal effect by soil treatment (symbol N); conditions: application herbicide amount 320 g/ha
Outline: as §1

[7] = test system: Leptochloa chinensis; assay: Test Example 3: herbicidal effect by foliage application, Wagner pot (symbol D); conditions: application herbicide amount 320 g/ha
Outline: as §4

[8] = test system: Setaria viridis; assay: Test Example 4: herbicidal effect by soil treatment (symbol G); conditions: application herbicide amount 320 g/ha
Outline: as §1

[9] = test system: Setaria viridis; assay: Test Example 5: herbicidal effect by foliage application, plastic box (symbol G); conditions: 320 g/ha, 3 weeks after application
Outline: as §3

[10] = test system: Echinochloa crus-galli var. crus-galli; assay: Test Example 5: herbicidal effect by foliage application, plastic box (symbol H); conditions: 320 g/ha, 3 weeks after application
Outline: as §3

[11] = test system: Stellaria media; assay: Test Example 4: herbicidal effect by soil treatment (symbol P); conditions: application herbicide amount 320 g/ha
Outline: as §1

[12] = test system: beet; assay: Test Example 5: effect on crop by foliage application, plastic box (symbol f); conditions: 320 g/ha, 3 weeks after application
Outline: as §2

[13] = test system: Abutilon theophrasti; assay: Test Example 4: herbicidal effect by soil treatment (symbol M); conditions: application herbicide amount 320 g/ha
Outline: as §1

[14] = test system: Veronica persica; assay: Test Example 4: herbicidal effect by soil treatment (symbol R); conditions: application herbicide amount 320 g/ha
Outline: as §1

[15] = test system: Stellaria media; assay: Test Example 5: herbicidal effect by foliage application, plastic box (symbol P); conditions: 320 g/ha, 3 weeks after application
Outline: as §3

[16] = test system: directly sowed rice plant; assay: Test Example 3: effect on crop by foliage application, Wagner pot (symbol b); conditions: application herbicide amount 320 g/ha
Outline: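 Plants are raised from seed in flooded paddy conditions: water stands 0.1–0.5 cm over alluvial soil, and the pot is kept in a greenhouse at 25–30 °C. Species sown are barnyardgrass (E. crus-galli var. crus-galli), Leptochloa chinensis, Cyperus difformis and rice.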

[17] = test system: rapeseed; assay: Test Example 5: effect on crop by foliage application, plastic box (symbol g); conditions: 320 g/ha, 3 weeks after application
Outline: as §2

[18] = test system: Digitaria ciliaris; assay: Test Example 4: herbicidal effect by soil treatment (symbol F); conditions: application herbicide amount 320 g/ha
Outline: as §1

[19] = test system: Lolium multiflorum Lam.; assay: Test Example 4: herbicidal effect by soil treatment (symbol K); conditions: application herbicide amount 320 g/ha
Outline: as §1

[20] = test system: Apera spica-venti; assay: Test Example 5: herbicidal effect by foliage application, plastic box (symbol L); conditions: 320 g/ha, 3 weeks after application
Outline: as §3

[21] = test system: transplanted rice plant; assay: Test Example 1: effect on crop, application before weed generation in submerged conditions (symbol a); conditions: application herbicide amount 320 g/ha
Outline: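 Alluvial soil pots flooded to 4 cm water, sown with Echinochloa oryzacola, Scirpus juncoides and Monochoria vaginalis, then transplanted with 2.5 leaf stage rice seedlings; pre-emergence application. Greenhouse 25° C. to 30° C.; scored 0–5 by herbicidal ratio 3 weeks after application.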

[22] = test system: Chenopodium album; assay: Test Example 4: herbicidal effect by soil treatment (symbol O); conditions: application herbicide amount 320 g/ha
Outline: as §1

| Structure (SMILES) | b: directly sowed rice plant, effect on crop grade [2] | M: Abutilon theophrasti, herbicidal effect grade [3] | I: Avena fatua, herbicidal effect grade [4] | herbicidal effect on H (Echinochloa crus-galli var. crus-galli), grade 0-5 [5] | herbicidal effect on D (Leptochloa chinensis), grade 0-5 [7] | G: Setaria viridis, herbicidal effect grade [9] | H: Echinochloa crus-galli var. crus-galli, herbicidal effect grade [10] | f: beet, effect on crop grade [12] | P: Stellaria media, herbicidal effect grade [15] | effect on crop b (directly sowed rice plant), grade 0-5 [16] | g: rapeseed, effect on crop grade [17] | L: Apera spica-venti, herbicidal effect grade [20] | Effect grade on crop, a: transplanted rice plant [21] | Herbicidal effect grade, N: Amaranthus retroflexus [6] | Herbicidal effect grade, G: Setaria viridis [8] | Herbicidal effect grade, O: Chenopodium album [22] | Herbicidal effect grade, P: Stellaria media [11] | Herbicidal effect grade, M: Abutilon theophrasti [13] | Herbicidal effect grade, F: Digitaria ciliaris [18] | Herbicidal effect grade, K: Lolium multiflorum Lam. [19] | other results |
| --- | --- | --- | --- | --- | --- | --- | --- | --- | --- | --- | --- | --- | --- | --- | --- | --- | --- | --- | --- | --- | --- |
| CON=C(C)CC1CC(O)=C(c2c(C)cc(C3CC3)cc2C)C1=O (centres unmarked) [6-050] | 5 (Herbicidal ratio of 90% or more (almost completely withered)) | 0 (Herbicidal ratio of 5% or lower (almost no effect)) | 2 (Herbicidal ratio of 20% or higher and lower than 40%) | 5 (Herbicidal ratio of 90% or more (almost completely withered)) | 5 (Herbicidal ratio of 90% or more (almost completely withered)) | 2 (Herbicidal ratio of 20% or higher and lower than 40%) | 4 (Herbicidal ratio of 70% or higher and lower than 90%) | 2 (Herbicidal ratio of 20% or higher and lower than 40%) | 3 (Herbicidal ratio of 40% or higher and lower than 70%) | 5 (Herbicidal ratio of 90% or more (almost completely withered)) | 5 (Herbicidal ratio of 90% or more (almost completely withered)) | 4 (Herbicidal ratio of 70% or higher and lower than 90%) | 4 (Herbicidal ratio of 70% or higher and lower than 90%) | – | – | – | – | – | – | – | L: Apera spica-venti, herbicidal effect grade [1]: 0 (Herbicidal ratio of 5% or lower (almost no effect)); N: Amaranthus retroflexus, herbicidal effect grade [6]: 0 (Herbicidal ratio of 5% or lower (almost no effect)); G: Setaria viridis, herbicidal effect grade [8]: 4 (Herbicidal ratio of 70% or higher and lower than 90%); P: Stellaria media, herbicidal effect grade [11]: 3 (Herbicidal ratio of 40% or higher and lower than 70%); M: Abutilon theophrasti, herbicidal effect grade [13]: 0 (Herbicidal ratio of 5% or lower (almost no effect)); R: Veronica persica, herbicidal effect grade [14]: 0 (Herbicidal ratio of 5% or lower (almost no effect)); F: Digitaria ciliaris, herbicidal effect grade [18]: 5 (Herbicidal ratio of 90% or more (almost completely withered)); K: Lolium multiflorum Lam., herbicidal effect grade [19]: 5 (Herbicidal ratio of 90% or more (almost completely withered)) |
| CON=C(C)CC1CC(OC(=O)C(C)CSC)=C(c2c(C)cc(-c3ccc(Cl)cc3)cc2C)C1=O (centres unmarked) [6-086] | – | – | – | 5 (Herbicidal ratio of 90% or more (almost completely withered)) | 5 (Herbicidal ratio of 90% or more (almost completely withered)) | – | – | – | – | 5 (Herbicidal ratio of 90% or more (almost completely withered)) | – | – | 5 (Herbicidal ratio of 90% or more (almost completely withered)) | 3 (Herbicidal ratio of 40% or higher and lower than 70%) | 5 (Herbicidal ratio of 90% or more (almost completely withered)) | 3 (Herbicidal ratio of 40% or higher and lower than 70%) | 4 (Herbicidal ratio of 70% or higher and lower than 90%) | 0 (Herbicidal ratio of 5% or lower (almost no effect)) | 5 (Herbicidal ratio of 90% or more (almost completely withered)) | 5 (Herbicidal ratio of 90% or more (almost completely withered)) | b: directly sowed rice plant, effect on crop (criteria of Test Example 1) [2]: 5 (Herbicidal ratio of 90% or more (almost completely withered)); M: Abutilon theophrasti, herbicidal effect (criteria of Test Example 1) [3]: 3 (Herbicidal ratio of 40% or higher and lower than 70%); I: Avena fatua, herbicidal effect (criteria of Test Example 1) [4]: 5 (Herbicidal ratio of 90% or more (almost completely withered)); G: Setaria viridis, herbicidal effect (criteria of Test Example 1) [9]: 5 (Herbicidal ratio of 90% or more (almost completely withered)); H: Echinochloa crus-galli var. crus-galli, herbicidal effect (criteria of Test Example 1) [10]: 5 (Herbicidal ratio of 90% or more (almost completely withered)); f: beet, effect on crop (criteria of Test Example 1) [12]: 3 (Herbicidal ratio of 40% or higher and lower than 70%); Herbicidal effect grade, R: Veronica persica [14]: 4 (Herbicidal ratio of 70% or higher and lower than 90%); P: Stellaria media, herbicidal effect (criteria of Test Example 1) [15]: 4 (Herbicidal ratio of 70% or higher and lower than 90%); g: rapeseed, effect on crop (criteria of Test Example 1) [17]: 4 (Herbicidal ratio of 70% or higher and lower than 90%); L: Apera spica-venti, herbicidal effect (criteria of Test Example 1) [20]: 5 (Herbicidal ratio of 90% or more (almost completely withered)) |
| CON=C(C)CC1CC(O)=C(c2c(F)cc(Br)cc2OC)C1=O (centres unmarked) [6-096] | – | – | – | 5 (Herbicidal ratio of 90% or more (almost completely withered)) | 4 (Herbicidal ratio of 70% or higher and lower than 90%) | – | – | – | – | 5 (Herbicidal ratio of 90% or more (almost completely withered)) | – | – | 5 (Herbicidal ratio of 90% or more (almost completely withered)) | 0 (Herbicidal ratio of 5% or lower (almost no effect)) | 4 (Herbicidal ratio of 70% or higher and lower than 90%) | 0 (Herbicidal ratio of 5% or lower (almost no effect)) | 0 (Herbicidal ratio of 5% or lower (almost no effect)) | 0 (Herbicidal ratio of 5% or lower (almost no effect)) | 4 (Herbicidal ratio of 70% or higher and lower than 90%) | 5 (Herbicidal ratio of 90% or more (almost completely withered)) | I: Avena fatua, herbicidal effect (criteria of Test Example 1) [4]: 5 (Herbicidal ratio of 90% or more (almost completely withered)); f: beet, effect on crop (criteria of Test Example 1) [12]: 0 (Herbicidal ratio of 5% or lower (almost no effect)); Herbicidal effect grade, R: Veronica persica [14]: 0 (Herbicidal ratio of 5% or lower (almost no effect)); P: Stellaria media, herbicidal effect (criteria of Test Example 1) [15]: 1 (Herbicidal ratio of 5% or higher and lower than 20%); g: rapeseed, effect on crop (criteria of Test Example 1) [17]: 4 (Herbicidal ratio of 70% or higher and lower than 90%); L: Apera spica-venti, herbicidal effect (criteria of Test Example 1) [20]: 3 (Herbicidal ratio of 40% or higher and lower than 70%) |
| CON=C(C)C(=NOC)C1CC(O)=C(c2c(C)cc(C)cc2C)C1=O (centres unmarked) [8-003] | 0 (Herbicidal ratio of 5% or lower (almost no effect)) | 0 (Herbicidal ratio of 5% or lower (almost no effect)) | 0 (Herbicidal ratio of 5% or lower (almost no effect)) | – | – | 0 (Herbicidal ratio of 5% or lower (almost no effect)) | 0 (Herbicidal ratio of 5% or lower (almost no effect)) | 0 (Herbicidal ratio of 5% or lower (almost no effect)) | 0 (Herbicidal ratio of 5% or lower (almost no effect)) | – | 0 (Herbicidal ratio of 5% or lower (almost no effect)) | 0 (Herbicidal ratio of 5% or lower (almost no effect)) | 0 (Herbicidal ratio of 5% or lower (almost no effect)) | 0 (Herbicidal ratio of 5% or lower (almost no effect)) | 0 (Herbicidal ratio of 5% or lower (almost no effect)) | 0 (Herbicidal ratio of 5% or lower (almost no effect)) | 0 (Herbicidal ratio of 5% or lower (almost no effect)) | 0 (Herbicidal ratio of 5% or lower (almost no effect)) | 0 (Herbicidal ratio of 5% or lower (almost no effect)) | 0 (Herbicidal ratio of 5% or lower (almost no effect)) | Herbicidal effect grade, L: Apera spica-venti [1]: 0 (Herbicidal ratio of 5% or lower (almost no effect)); H (Echinochloa crus-galli var. crus-galli) herbicidal effect grade ([5]; Table 24): 0 (Herbicidal ratio of 5% or lower (almost no effect)); D (Leptochloa chinensis) herbicidal effect grade ([7]; Table 24): 0 (Herbicidal ratio of 5% or lower (almost no effect)); b (directly sowed rice plant) effect on crop grade ([16]; Table 24): 0 (Herbicidal ratio of 5% or lower (almost no effect)) |
